Data as given in PubChem BioAssay (NCI).
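Results reflect a 48-hour exposure of cells in 96-well plates to compound at five concentrations. TGI: concentration producing complete growth inhibition.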

Assays:
Assay in all cases: NCI tumour cell line growth inhibition, 48 h
NCI-H460 lung = tested on: NCI-H460 lung
U251 CNS = tested on: U251 CNS
CCRF-CEM leukemia = tested on: CCRF-CEM leukemia
M14 melanoma = tested on: M14 melanoma
UACC-62 melanoma = tested on: UACC-62 melanoma
DMS 114 small cell lung = tested on: DMS 114 small cell lung
MALME-3M melanoma = tested on: MALME-3M melanoma
OVCAR-4 ovarian = tested on: OVCAR-4 ovarian
NCI-H226 lung = tested on: NCI-H226 lung
SK-MEL-2 melanoma = tested on: SK-MEL-2 melanoma
UACC-257 melanoma = tested on: UACC-257 melanoma
SW-620 colon = tested on: SW-620 colon
KM12 colon = tested on: KM12 colon
A498 renal = tested on: A498 renal
HOP-18 NSCLC = tested on: HOP-18 NSCLC
KM20L2 colon = tested on: KM20L2 colon
TK-10 renal = tested on: TK-10 renal
COLO 205 colon = tested on: COLO 205 colon
CAKI-1 renal = tested on: CAKI-1 renal
HCT-116 colon = tested on: HCT-116 colon
IGROV1 ovarian = tested on: IGROV1 ovarian
OVCAR-5 ovarian = tested on: OVCAR-5 ovarian
LXFL 529 NSCLC = tested on: LXFL 529 NSCLC
SNB-75 CNS = tested on: SNB-75 CNS
K-562 leukemia = tested on: K-562 leukemia
SF-295 CNS = tested on: SF-295 CNS
OVCAR-8 ovarian = tested on: OVCAR-8 ovarian
HOP-62 NSCLC = tested on: HOP-62 NSCLC
SF-539 CNS = tested on: SF-539 CNS
SNB-19 CNS = tested on: SNB-19 CNS
HOP-92 NSCLC = tested on: HOP-92 NSCLC
NCI-H23 lung = tested on: NCI-H23 lung
SN12C renal = tested on: SN12C renal
OVCAR-3 ovarian = tested on: OVCAR-3 ovarian
786-0 renal = tested on: 786-0 renal
DMS 273 small cell lung = tested on: DMS 273 small cell lung
EKVX NSCLC = tested on: EKVX NSCLC
MOLT-4 leukemia = tested on: MOLT-4 leukemia
SK-MEL-5 melanoma = tested on: SK-MEL-5 melanoma
RXF-631 renal = tested on: RXF-631 renal
HT29 colon = tested on: HT29 colon
RXF 393 renal = tested on: RXF 393 renal
A549 NSCLC = tested on: A549 NSCLC
SK-OV-3 ovarian = tested on: SK-OV-3 ovarian
SF-268 CNS = tested on: SF-268 CNS
NCI-H522 lung = tested on: NCI-H522 lung
XF 498 CNS = tested on: XF 498 CNS
LOX IMVI melanoma = tested on: LOX IMVI melanoma
HCT-15 colon = tested on: HCT-15 colon
RPMI-8226 leukemia = tested on: RPMI-8226 leukemia
ACHN renal = tested on: ACHN renal
SK-MEL-28 melanoma = tested on: SK-MEL-28 melanoma
UO-31 renal = tested on: UO-31 renal
HL-60(TB) leukemia = tested on: HL-60(TB) leukemia
PC-3 prostate = tested on: PC-3 prostate
NCI/ADR-RES ovarian = tested on: NCI/ADR-RES ovarian
DU-145 prostate = tested on: DU-145 prostate
DLD-1 colon = tested on: DLD-1 colon
M19-MEL melanoma = tested on: M19-MEL melanoma
MCF7 breast = tested on: MCF7 breast
BT-549 breast = tested on: BT-549 breast
MDA-N = tested on: MDA-N
MDA-MB-435 = tested on: MDA-MB-435
HS 578T breast = tested on: HS 578T breast
SNB-78 CNS = tested on: SNB-78 CNS
SR leukemia = tested on: SR leukemia
HCC-2998 colon = tested on: HCC-2998 colon

Structure (SMILES): CN1CCCC2[C@@H]3CCC4=C(O)C(=O)CC[C@]4(C)C3CC[C@@]21C (some centres undefined)
- TGI (NCI-H460 lung): > 100 µM
- TGI (U251 CNS): > 100 µM
- TGI (CCRF-CEM leukemia): > 100 µM
- TGI (M14 melanoma): > 100 µM
- TGI (UACC-62 melanoma): > 100 µM
- TGI (DMS 114 small cell lung): > 100 µM
- TGI (MALME-3M melanoma): > 100 µM
- TGI (OVCAR-4 ovarian): > 100 µM
- TGI (NCI-H226 lung): > 100 µM
- TGI (SK-MEL-2 melanoma): > 100 µM
- TGI (UACC-257 melanoma): > 100 µM
- TGI (SW-620 colon): > 100 µM
- TGI (KM12 colon): > 100 µM
- TGI (A498 renal): > 100 µM
- TGI (HOP-18 NSCLC): > 100 µM
- TGI (KM20L2 colon): > 100 µM
- TGI (TK-10 renal): > 100 µM
- TGI (COLO 205 colon): > 100 µM
- TGI (CAKI-1 renal): > 100 µM
- TGI (HCT-116 colon): > 100 µM
- TGI (IGROV1 ovarian): > 100 µM
- TGI (OVCAR-5 ovarian): > 100 µM
- TGI (LXFL 529 NSCLC): > 100 µM
- TGI (SNB-75 CNS): > 100 µM
- TGI (K-562 leukemia): > 100 µM
- TGI (SF-295 CNS): > 100 µM
- TGI (OVCAR-8 ovarian): > 100 µM
- TGI (HOP-62 NSCLC): > 100 µM
- TGI (SF-539 CNS): > 100 µM
- TGI (SNB-19 CNS): > 100 µM
- TGI (HOP-92 NSCLC): > 100 µM
- TGI (NCI-H23 lung): > 100 µM
- TGI (SN12C renal): > 100 µM
- TGI (OVCAR-3 ovarian): > 100 µM
- TGI (786-0 renal): > 100 µM
- TGI (DMS 273 small cell lung): > 100 µM
- TGI (EKVX NSCLC): > 100 µM
- TGI (MOLT-4 leukemia): > 100 µM
- TGI (SK-MEL-5 melanoma): > 100 µM
- TGI (RXF-631 renal): > 100 µM
- TGI (HT29 colon): > 100 µM
- TGI (RXF 393 renal): > 100 µM
- TGI (A549 NSCLC): > 100 µM
- TGI (SK-OV-3 ovarian): > 100 µM
- TGI (SF-268 CNS): > 100 µM
- TGI (NCI-H522 lung): > 100 µM
- TGI (XF 498 CNS): > 100 µM
- TGI (LOX IMVI melanoma): > 100 µM
- TGI (HCT-15 colon): > 100 µM
- TGI (RPMI-8226 leukemia): > 100 µM
- TGI (ACHN renal): > 100 µM
- TGI (SK-MEL-28 melanoma): > 100 µM
- TGI (UO-31 renal): > 100 µM
- TGI (HL-60(TB) leukemia): > 100 µM

Structure (SMILES): COc1ccc(/C=C2\CCC(CN3CCOCC3)C2=O)cc1 (centres undefined)
- TGI (NCI-H460 lung): 41.3 µM
- TGI (U251 CNS): 31.2 µM
- TGI (CCRF-CEM leukemia): > 21.3 µM
- TGI (M14 melanoma): 5.26 µM
- TGI (UACC-62 melanoma): 24.5 µM
- TGI (DMS 114 small cell lung): 7.09 µM
- TGI (MALME-3M melanoma): 6.42 µM
- TGI (PC-3 prostate): 11.7 µM
- TGI (OVCAR-4 ovarian): 24.1 µM
- TGI (NCI-H226 lung): 35.5 µM
- TGI (NCI/ADR-RES ovarian): 5.23 µM
- TGI (SK-MEL-2 melanoma): 9.66 µM
- TGI (UACC-257 melanoma): 5.94 µM
- TGI (SW-620 colon): 3.86 µM
- TGI (DU-145 prostate): 4.02 µM
- TGI (KM12 colon): 16.2 µM
- TGI (DLD-1 colon): 24.8 µM
- TGI (M19-MEL melanoma): 30.5 µM
- TGI (A498 renal): 21.4 µM
- TGI (HOP-18 NSCLC): 18.3 µM
- TGI (MCF7 breast): 9.58 µM
- TGI (KM20L2 colon): 13.5 µM
- TGI (TK-10 renal): 9.64 µM
- TGI (BT-549 breast): 5.54 µM
- TGI (COLO 205 colon): 5.38 µM
- TGI (CAKI-1 renal): 4.15 µM
- TGI (IGROV1 ovarian): 11.3 µM
- TGI (OVCAR-5 ovarian): 19.5 µM
- TGI (LXFL 529 NSCLC): 3.04 µM
- TGI (SNB-75 CNS): 30.5 µM
- TGI (K-562 leukemia): 6.02 µM
- TGI (SF-295 CNS): 32.1 µM
- TGI (OVCAR-8 ovarian): 7.35 µM
- TGI (HOP-62 NSCLC): 33.3 µM
- TGI (SF-539 CNS): 13 µM
- TGI (SNB-19 CNS): 26 µM
- TGI (MDA-N): 5.83 µM
- TGI (HOP-92 NSCLC): 6.65 µM
- TGI (MDA-MB-435): 3.97 µM
- TGI (NCI-H23 lung): 14.4 µM
- TGI (SN12C renal): 12.3 µM
- TGI (OVCAR-3 ovarian): 9.36 µM
- TGI (786-0 renal): 3.11 µM
- TGI (EKVX NSCLC): 21.1 µM
- TGI (MOLT-4 leukemia): 6.29 µM
- TGI (SK-MEL-5 melanoma): 12.7 µM
- TGI (RXF-631 renal): 43.5 µM
- TGI (HT29 colon): 5.73 µM
- TGI (RXF 393 renal): 3.12 µM
- TGI (A549 NSCLC): 20.8 µM
- TGI (HS 578T breast): > 100 µM
- TGI (SK-OV-3 ovarian): 30 µM
- TGI (SF-268 CNS): 16.4 µM
- TGI (NCI-H522 lung): 2.39 µM
- TGI (SNB-78 CNS): 27 µM
- TGI (XF 498 CNS): 9.69 µM
- TGI (LOX IMVI melanoma): 10.1 µM
- TGI (HCT-15 colon): 6.2 µM
- TGI (SR leukemia): 5.97 µM
- TGI (RPMI-8226 leukemia): 3.57 µM
- TGI (ACHN renal): 11.7 µM
- TGI (SK-MEL-28 melanoma): 7.71 µM
- TGI (UO-31 renal): 15.3 µM
- TGI (HCC-2998 colon): 10.9 µM
- TGI (HL-60(TB) leukemia): 11.2 µM
